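Values below derive from 48-hour exposures of cells grown in 96-well plates, with endpoints linearly interpolated between the two concentrations bracketing the appropriate inhibition level. GI50 = concentration required for 50% inhibition of growth. The concentration for full growth arrest is given as TGI.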
How the values were obtained:
Experiment in all cases: DTP human tumour cell line panel, 48 h
786-0 renal = tested on: 786-0 renal
A498 renal = tested on: A498 renal
A549 NSCLC = tested on: A549 NSCLC
ACHN renal = tested on: ACHN renal
BT-549 breast = tested on: BT-549 breast
CAKI-1 renal = tested on: CAKI-1 renal
CCRF-CEM leukemia = tested on: CCRF-CEM leukemia
COLO 205 colon = tested on: COLO 205 colon
DU-145 prostate = tested on: DU-145 prostate
HCC-2998 colon = tested on: HCC-2998 colon
HCT-116 colon = tested on: HCT-116 colon
HCT-15 colon = tested on: HCT-15 colon
HL-60(TB) leukemia = tested on: HL-60(TB) leukemia
HOP-62 NSCLC = tested on: HOP-62 NSCLC
HOP-92 NSCLC = tested on: HOP-92 NSCLC
HS 578T breast = tested on: HS 578T breast
HT29 colon = tested on: HT29 colon
IGROV1 ovarian = tested on: IGROV1 ovarian
K-562 leukemia = tested on: K-562 leukemia
KM12 colon = tested on: KM12 colon
LOX IMVI melanoma = tested on: LOX IMVI melanoma
M14 melanoma = tested on: M14 melanoma
MALME-3M melanoma = tested on: MALME-3M melanoma
MCF7 breast = tested on: MCF7 breast
MDA-MB-231 breast = tested on: MDA-MB-231 breast
MDA-MB-435 = tested on: MDA-MB-435
MOLT-4 leukemia = tested on: MOLT-4 leukemia
NCI-H226 lung = tested on: NCI-H226 lung
NCI-H23 lung = tested on: NCI-H23 lung
NCI-H460 lung = tested on: NCI-H460 lung
NCI-H522 lung = tested on: NCI-H522 lung
NCI/ADR-RES ovarian = tested on: NCI/ADR-RES ovarian
OVCAR-3 ovarian = tested on: OVCAR-3 ovarian
OVCAR-4 ovarian = tested on: OVCAR-4 ovarian
OVCAR-5 ovarian = tested on: OVCAR-5 ovarian
OVCAR-8 ovarian = tested on: OVCAR-8 ovarian
PC-3 prostate = tested on: PC-3 prostate
RPMI-8226 leukemia = tested on: RPMI-8226 leukemia
RXF 393 renal = tested on: RXF 393 renal
SF-268 CNS = tested on: SF-268 CNS
SF-295 CNS = tested on: SF-295 CNS
SF-539 CNS = tested on: SF-539 CNS
SK-MEL-2 melanoma = tested on: SK-MEL-2 melanoma
SK-MEL-28 melanoma = tested on: SK-MEL-28 melanoma
SK-MEL-5 melanoma = tested on: SK-MEL-5 melanoma
SK-OV-3 ovarian = tested on: SK-OV-3 ovarian
SN12C renal = tested on: SN12C renal
SNB-19 CNS = tested on: SNB-19 CNS
SNB-75 CNS = tested on: SNB-75 CNS
SR leukemia = tested on: SR leukemia
SW-620 colon = tested on: SW-620 colon
T-47D breast = tested on: T-47D breast
TK-10 renal = tested on: TK-10 renal
U251 CNS = tested on: U251 CNS
UACC-257 melanoma = tested on: UACC-257 melanoma
UACC-62 melanoma = tested on: UACC-62 melanoma
UO-31 renal = tested on: UO-31 renal

CC(=O)N1CCC(Nc2ncc3cc(Oc4ccc(F)cc4F)c(=O)n(C)c3n2)CC1
GI50 (786-0 renal): > 25 µM | TGI (786-0 renal): > 25 µM | GI50 (A498 renal): 9.26 µM | TGI (A498 renal): > 25 µM | GI50 (A549 NSCLC): > 25 µM | TGI (A549 NSCLC): > 25 µM | GI50 (ACHN renal): > 25 µM | TGI (ACHN renal): > 25 µM | GI50 (BT-549 breast): > 25 µM | TGI (BT-549 breast): > 25 µM | GI50 (CAKI-1 renal): > 25 µM | TGI (CAKI-1 renal): > 25 µM | GI50 (CCRF-CEM leukemia): > 25 µM | TGI (CCRF-CEM leukemia): > 25 µM | GI50 (COLO 205 colon): > 25 µM | TGI (COLO 205 colon): > 25 µM | GI50 (DU-145 prostate): > 25 µM | TGI (DU-145 prostate): > 25 µM | GI50 (HCC-2998 colon): > 25 µM | TGI (HCC-2998 colon): > 25 µM | GI50 (HCT-116 colon): > 25 µM | TGI (HCT-116 colon): > 25 µM | GI50 (HCT-15 colon): > 25 µM | TGI (HCT-15 colon): > 25 µM | GI50 (HL-60(TB) leukemia): > 25 µM | TGI (HL-60(TB) leukemia): > 25 µM | GI50 (HOP-62 NSCLC): > 25 µM | TGI (HOP-62 NSCLC): > 25 µM | GI50 (HOP-92 NSCLC): 2.45 µM | TGI (HOP-92 NSCLC): > 25 µM | GI50 (HS 578T breast): 8.69 µM | TGI (HS 578T breast): > 25 µM | GI50 (HT29 colon): > 25 µM | TGI (HT29 colon): > 25 µM | GI50 (IGROV1 ovarian): > 25 µM | TGI (IGROV1 ovarian): > 25 µM | GI50 (K-562 leukemia): > 25 µM | TGI (K-562 leukemia): > 25 µM | GI50 (KM12 colon): > 25 µM | TGI (KM12 colon): > 25 µM | GI50 (LOX IMVI melanoma): > 25 µM | TGI (LOX IMVI melanoma): > 25 µM | GI50 (M14 melanoma): > 25 µM | TGI (M14 melanoma): > 25 µM | GI50 (MALME-3M melanoma): > 25 µM | TGI (MALME-3M melanoma): > 25 µM | GI50 (MCF7 breast): > 25 µM | TGI (MCF7 breast): > 25 µM | GI50 (MDA-MB-231 breast): > 25 µM | TGI (MDA-MB-231 breast): > 25 µM | GI50 (MDA-MB-435): > 25 µM | TGI (MDA-MB-435): > 25 µM | GI50 (MOLT-4 leukemia): > 25 µM | TGI (MOLT-4 leukemia): > 25 µM | GI50 (NCI-H226 lung): > 25 µM | TGI (NCI-H226 lung): > 25 µM | GI50 (NCI-H23 lung): > 25 µM | TGI (NCI-H23 lung): > 25 µM | GI50 (NCI-H460 lung): > 25 µM | TGI (NCI-H460 lung): > 25 µM | GI50 (NCI-H522 lung): > 25 µM | TGI (NCI-H522 lung): > 25 µM | GI50 (NCI/ADR-RES ovarian): > 25 µM | TGI (NCI/ADR-RES ovarian): > 25 µM | GI50 (OVCAR-3 ovarian): > 25 µM | TGI (OVCAR-3 ovarian): > 25 µM | GI50 (OVCAR-4 ovarian): > 18.8 µM | TGI (OVCAR-4 ovarian): > 25 µM | GI50 (OVCAR-5 ovarian): > 25 µM | TGI (OVCAR-5 ovarian): > 25 µM | GI50 (OVCAR-8 ovarian): > 25 µM | TGI (OVCAR-8 ovarian): > 25 µM | GI50 (PC-3 prostate): > 25 µM | TGI (PC-3 prostate): > 25 µM | GI50 (RPMI-8226 leukemia): > 25 µM | TGI (RPMI-8226 leukemia): > 25 µM | GI50 (RXF 393 renal): > 16.9 µM | TGI (RXF 393 renal): > 25 µM | GI50 (SF-268 CNS): > 25 µM | TGI (SF-268 CNS): > 25 µM | GI50 (SF-295 CNS): > 25 µM | TGI (SF-295 CNS): > 25 µM | GI50 (SF-539 CNS): > 25 µM | TGI (SF-539 CNS): > 25 µM | GI50 (SK-MEL-2 melanoma): > 25 µM | TGI (SK-MEL-2 melanoma): > 25 µM | GI50 (SK-MEL-28 melanoma): > 25 µM | TGI (SK-MEL-28 melanoma): > 25 µM | GI50 (SK-MEL-5 melanoma): > 25 µM | TGI (SK-MEL-5 melanoma): > 25 µM | GI50 (SK-OV-3 ovarian): > 25 µM | TGI (SK-OV-3 ovarian): > 25 µM | GI50 (SN12C renal): > 25 µM | TGI (SN12C renal): > 25 µM | GI50 (SNB-19 CNS): > 25 µM | TGI (SNB-19 CNS): > 25 µM | GI50 (SNB-75 CNS): > 22 µM | TGI (SNB-75 CNS): > 25 µM | GI50 (SR leukemia): > 25 µM | TGI (SR leukemia): > 25 µM | GI50 (SW-620 colon): > 25 µM | TGI (SW-620 colon): > 25 µM | GI50 (T-47D breast): > 25 µM | TGI (T-47D breast): > 25 µM | GI50 (TK-10 renal): > 25 µM | TGI (TK-10 renal): > 25 µM | GI50 (U251 CNS): > 25 µM | TGI (U251 CNS): > 25 µM | GI50 (UACC-257 melanoma): > 25 µM | TGI (UACC-257 melanoma): > 25 µM | GI50 (UACC-62 melanoma): > 25 µM | TGI (UACC-62 melanoma): > 25 µM | GI50 (UO-31 renal): > 17.7 µM | TGI (UO-31 renal): > 25 µM
